According to article PMC7733993, “Docking Characterization and in vitro Inhibitory Activity of Flavan-3-ols and Dimeric Proanthocyanidins Against the Main Protease Activity of SARS-Cov-2” (Frontiers in Plant Science, 2020):
Entries after “also recorded” stand apart in the source; their conditions may differ. Read-outs that look alike come from different tables or passages of the source.

Biological target: 3CL Protease (M^pro) (SARS-CoV-2) (Severe acute respiratory syndrome coronavirus 2, UniProt P0DTD1)
Assay: biochemical
Format: biochemical
Settings: for inhibitory activity against M^pro: concentration not given; for inhibition at 100 µM: read-out: M^pro activity inhibited compared with the negative control; for inhibitory effects on the activity of Mpro: eight concentrations (0-200 μM) tested, Figure S2; for inhibition of the M^pro activity: range of concentrations from 0 to 500 μM tested

O=C(OC1Cc2c(O)cc(O)cc2OC1c1cc(O)c(O)c(O)c1)c1cc(O)c(O)c(O)c1 (single isomer, unassigned; (-)) [EGCG, (–)-epigallocatechin-3-O-gallate]
inhibitory activity against M^pro: inhibited | inhibition at 100 µM: 44.4%

Oc1cc(O)c2c(c1)O[C@H](c1ccc(O)c(O)c1)[C@H](O)[C@H]2c1c(O)cc(O)c2c1O[C@H](c1ccc(O)c(O)c1)[C@@H](O)C2 [procyanidin B1]
inhibitory activity against M^pro: inhibited

O=C(O[C@@H]1Cc2c(O)cc(O)cc2O[C@H]1c1cc(O)c(O)c(O)c1)c1cc(O)c(O)c(O)c1 [GCG, (–)-gallocatechin-3-O-gallate]
inhibitory activity against M^pro: inhibited | inhibition at 100 µM: 50%

Oc1cc(O)c2c(c1)O[C@H](c1ccc(O)c(O)c1)[C@H](O)C2 [EC, (–)-epicatechin]
inhibitory activity against M^pro: did not have inhibitory activities; also recorded: No inhibitory activity was detected | inhibitory effects on the activity of Mpro: No inhibitory effects | inhibition of the M^pro activity: did not detect

Oc1cc(O)c2c(c1)O[C@@H](c1cc(O)c(O)c(O)c1)[C@H](O)C2 [GC, (+)-gallocatechin]
inhibitory activity against M^pro: did not have inhibitory activities; also recorded: No inhibitory activity was detected | inhibitory effects on the activity of Mpro: No inhibitory effects | inhibition of the M^pro activity: did not detect

Oc1cc(O)c2c(c1)O[C@H](c1ccc(O)c(O)c1)[C@H](O)[C@H]2c1c(O)cc(O)c2c1O[C@H](c1ccc(O)c(O)c1)[C@H](O)C2 [PB2, procyanidin B2]
IC50: 75.3 ± 1.29 µM | inhibition at 100 µM (100 μM compound): 81.5% | inhibitory activity against M^pro: inhibited

O=C(O[C@@H]1Cc2c(O)cc(O)cc2O[C@@H]1c1ccc(O)c(O)c1)c1cc(O)c(O)c(O)c1 [ECG, (–)-epicatechin-3-O-gallate]
IC50: 5.21 ± 0.5 µM | inhibitory activity against M^pro: inhibited | inhibition at 100 µM: 40%

O=C(O[C@@H]1Cc2c(O)cc(O)cc2O[C@H]1c1ccc(O)c(O)c1)c1cc(O)c(O)c(O)c1 [CAG, (+)-catechin-3-O-gallate]
inhibitory activity against M^pro: inhibited | inhibition at 100 µM: 40%

Oc1cc(O)c2c(c1)O[C@H](c1cc(O)c(O)c(O)c1)[C@H](O)C2 [EGC, (–)-epigallocatechin]
inhibitory activity against M^pro: did not have inhibitory activities; also recorded: No inhibitory activity was detected | inhibitory effects on the activity of Mpro: No inhibitory effects | inhibition of the M^pro activity: did not detect

Oc1cc(O)c2c(c1)O[C@H](c1ccc(O)c(O)c1)[C@@H](O)C2 [CA, (+)-catechin]
inhibitory activity against M^pro: did not have inhibitory activities; also recorded: No inhibitory activity was detected | inhibitory effects on the activity of Mpro: No inhibitory effects | inhibition of the M^pro activity: did not detect

Oc1cc(O)c2c(c1)O[C@@]1(c3ccc(O)c(O)c3)Oc3cc(O)c4c(c3[C@@H]2[C@H]1O)O[C@H](c1ccc(O)c(O)c1)[C@H](O)C4 [PA2, procyanidin A2]
inhibitory activity against M^pro: did not have inhibitory activities | inhibitory effects on the activity of Mpro: No inhibitory effects | inhibition of the M^pro activity: did not detect
